The test system of test [1] is Spodoptera littoralis. Briefly: Antifeedant activity against newly ecdysed fifth-instar larval stage of Spodoptera littoralis in compound-pretreated lettuce leaf disks assessed as consumed area of leaf disks at 1 ug/cm'2 measured at 30 min intervals for 4-5 hr post-drug exposure by choice test. It counts as functional.
Test [2] relates to Spodoptera littoralis. Briefly: Antifeedant activity against newly ecdysed fifth-instar larval stage of Spodoptera littoralis in compound-pretreated lettuce leaf disks assessed as consumed area of leaf disks at 10 ug/cm'2 measured at 30 min intervals for 4-5 hr post-drug exposure by choice test. It counts as functional.
Test [3] deals with Spodoptera littoralis. As to the kind of experiment: Antifeedant activity against newly ecdysed fifth-instar larval stage of Spodoptera littoralis in compound-pretreated lettuce leaf disks assessed as consumed area of leaf disks at 0.1 ug/cm'2 measured at 30 min intervals for 4-5 hr post-drug exposure by choice test. It counts as functional.
For test [4], the system named is Spodoptera littoralis. As to the kind of experiment: Antifeedant activity against newly ecdysed fifth-instar larval stage of Spodoptera littoralis in compound-pretreated lettuce leaf disks assessed as consumed area of leaf disks measured at 30 min intervals for 4-5 hr post-drug exposure by choice test. It counts as functional, organism-based.
The subject of test [5] is Spodoptera littoralis. Briefly: Insecticidal activity against newly ecdysed fifth-instar larval stage of Spodoptera littoralis in compound-pretreated lettuce leaf disks assessed as mortality at 3 hr post-drug exposure. It counts as functional.

The source made the active and inactive calls. The calls are words filed in the database; no cut-off is given here.

Drawing on ChEMBL document CHEMBL3046582, “Antifeedant activity of sesquiterpenes from celastraceae” (1997), this text covers FR50, Activity and LD100 for 47 compounds.

For the compound `CC(=O)O[C@H]1CC[C@](C)(O)[C@]23OC(C)(C)[C@H]([C@@H](OC(=O)c4ccccc4)[C@@H](OC(=O)c4ccccc4)[C@]12OC(C)=O)[C@H]3OC(C)=O`, the results for the FR50 in test [1] and in test [2] were 0.4 and 0.15, respectively.
In the case of `CC(=O)O[C@@H]1[C@H]2C(=O)[C@@H](OC(=O)c3ccccc3)[C@]3(O)[C@@H](OC(C)=O)[C@@H](C(C)=O)CC(C)[C@@]13OC2(C)C` (stereo partly specified), the FR50 in test [2] came to 0.41.
Take `CC(=O)O[C@H]1C[C@](C)(O)[C@]23OC(C)(C)[C@H]([C@@H](C(C)=O)[C@@H](OC(=O)c4ccccc4)[C@]2(OC(C)=O)[C@H]1OC(=O)c1ccccc1)[C@H]3O`: the FR50 was determined as 0.19 in test [1], 1.02 in test [3] and 0.1 in test [2].
For the compound `CC(=O)OC1CCOC1` (single isomer, unassigned; (+)), in test [4], the result was inactive. In test [5], the LD100 entry was “inactive”.
Turning to `COCCCC[C@@H]1[C@@H]2[C@@H](OC(C)=O)[C@@]3(OC2(C)C)[C@](OC(C)=O)([C@@H]1OC(=O)c1ccccc1)[C@@H](O)CC[C@]3(C)O`, the FR50 in test [1] is 0.23; in test [3] it was 0.57; in test [2], 0.08.
For TRIPHENYLSTANNYL ACETATE, in test [2], the FR50 was 0.37.
Consider `CCC(C)C(=O)OC` (stereo in doubt; 54), for which the outcome in test [4] was inactive. Further, the LD100 result in test [5] is “inactive”.
In the case of `CC(=O)O[C@H]1CCC(C)[C@]23OC(C)(C)[C@H]([C@@H](O)[C@H](OC(=O)c4ccccc4)[C@]12OC(C)=O)[C@H]3OC(C)=O` (stereo partly specified), the FR50 in test [1] worked out at 0.25; in test [2], 0.05.
`C/C=C(/C)C(=O)O[C@@H]1[C@@H]2[C@@H](OC(C)=O)[C@@]3(OC2(C)C)[C@@](OC(C)=O)([C@@H](OC(=O)c2ccccc2)CC[C@]3(C)O)[C@@H]1OC(=O)c1ccccc1`: the FR50 in test [1] is given as 0.29; in test [2], 0.12.
On to `CC(=O)O[C@@H]1[C@@H](O)[C@@H]2[C@@H](OC(=O)c3cccnc3)[C@@]3(OC2(C)C)[C@@]1(C)[C@@H](OC(=O)c1ccccc1)CC[C@]3(C)O`, for which the FR50 in test [2] came to 0.74.
Turning to `CC(=O)O[C@@H]1[C@H]2C[C@H](OC(=O)c3ccccc3)[C@]3(O)[C@@H](OC(C)=O)[C@@H](C(C)=O)CC(C)[C@@]13OC2(C)C` (stereo partly specified), the FR50 is reported as 0.54 in test [1] and 0.19 in test [2].
Consider `CC(=O)O[C@H]1C[C@](C)(O)[C@]23OC(C)(C)[C@H](C(=O)[C@@H](OC(=O)c4ccccc4)[C@]2(OC(C)=O)[C@H]1OC(C)=O)[C@H]3OC(C)=O`, for which the LD100 in test [5] came out at 1 microg/cm2.
`CC(=O)O[C@@H]1[C@@H]2[C@@H](OC(C)=O)[C@]3(OC2(C)C)C(C)C[C@H](C(C)=O)[C@H](OC(C)=O)[C@@]3(OC(C)=O)[C@H]1OC(=O)c1ccccc1` (stereo partly specified): the FR50 in test [1] came to 0.53; in test [2], 0.07.
For `CC(=O)O[C@@H]1[C@H]2C[C@H](OC(=O)c3ccccc3)[C@]3(C)[C@@H](OC(=O)c4ccccc4)[C@H](C(C)=O)[C@H](C(C)=O)[C@](C)(O)[C@@]13OC2(C)C`, the FR50 in test [2] stood at 0.65.
On to `OC1CCOC1` (racemic), for which the result in test [4] was inactive. Also, the LD100 entry in test [5] was “inactive”.
On to `CC(=O)OC1CCOC1` (racemic), for which the outcome in test [4] was inactive. Moreover, the LD100 result in test [5] is “inactive”.
In the case of `CC(=O)O[C@@H]1[C@@H]2[C@@H](OC(C)=O)[C@@]3(OC2(C)C)[C@](O)([C@@H]1OC(=O)c1ccccc1)[C@@H](OC(C)=O)[C@@H](C(C)=O)C[C@]3(C)O`, the FR50 stood at 0.66 in test [1] and 0.16 in test [2].
Take `CC1(C)O[C@]23C[C@@H]1CC[C@]2(C)CC[C@H](O)[C@@]3(C)O`: in test [2], the FR50 is 0.52.
Still for that read-out and setting: with `CC(=O)O[C@H]1C[C@](C)(O)[C@]23OC(C)(C)[C@H]([C@@H](C(C)=O)[C@@H](OC(=O)c4ccccc4)[C@]2(OC(C)=O)[C@H]1OC(=O)c1ccccc1)[C@H]3OC(C)=O` the figure was 0.35.
`CC[C@@H]1CCC(=O)O[C@H]2[C@H](OC(C)=O)[C@H](OC(C)=O)[C@@]3(OC(C)=O)[C@H](OC(C)=O)C(=O)[C@@H]4[C@@H](OC(C)=O)[C@]3(O[C@@]4(C)COC(=O)c3ccccc31)[C@@]2(C)O` [ORTHOSPHENINE]: in test [5], the LD100 is on record as 0.01 microg/cm2.
In the case of `O=C(OC1CCOC1)c1ccccc1` (racemic), in test [4], the result was inactive. Besides, the LD100 result in test [5] was “inactive”.
On to `OC1CCOC1` (stereo in doubt; 46), for which the outcome in test [4] was inactive. In addition, the LD100 result in test [5] was “inactive”.
`CC(=O)O[C@@H]1[C@H]2C[C@H](OC(=O)c3ccccc3)[C@]3(C)[C@@H](OC(=O)c4ccccc4)[C@H](C(C)=O)[C@H](O)C(C)[C@@]13OC2(C)C` (stereo partly specified): the FR50 in test [2] worked out at 0.63.
On the same count and under the same terms, with `CC(=O)O[C@H]1[C@H](OC(=O)c2ccccc2)[C@@]2(C)[C@@H](O/C=C/c3ccccc3)C[C@@H]3[C@@H](OC(C)=O)[C@]2(OC3(C)C)[C@@](C)(O)[C@H]1O` the figure was 0.76.
Turning to `O=C(OC1CCOC1)c1cc([N+](=O)[O-])cc([N+](=O)[O-])c1` (racemic), the result in test [4] was inactive. Also, the LD100 entry in test [5] was “inactive”.
Consider `CC(=O)O[C@H]1[C@H](OC(=O)c2ccccc2)[C@@]2(C)[C@@H](OC(=O)c3ccccc3)C[C@@H]3[C@@H](OC(C)=O)[C@]2(OC3(C)C)[C@@](C)(O)[C@H]1O` [2BETA,3BETA,4BETA,TRIHYDROXYCELARBICO], for which the FR50 in test [1] stood at 0.44; in test [2] it was 0.24.
Take `CCC(C)C(=O)OC` (single isomer, unassigned; (+)): the result in test [4] was inactive. The LD100 entry in test [5] is “inactive”.
As for `CC(=O)O[C@@H]1[C@@H]2[C@@H](OC(C)=O)[C@@]3(OC2(C)C)[C@@](OC(C)=O)([C@@H](OC(=O)c2ccccc2)CC[C@]3(C)O)[C@@H]1OC(=O)c1ccccc1`, the FR50 in test [1] amounted to 0.58; in test [2] it was 0.24.
Taken in the same sequence, the figures for `CC(=O)O[C@@H]1[C@@H]2[C@@H](OC(C)=O)[C@]3(OC2(C)C)C(C)C[C@H](C(C)=O)[C@H](OC(C)=O)[C@@]3(O)[C@H]1OC(=O)c1ccccc1` (stereo partly specified) were 0.71 and 0.13.
`CC(=O)O[C@H]1C[C@](C)(O)[C@]23OC(C)(C)[C@H](C(=O)[C@@H](OC(=O)c4ccccc4)[C@]2(OC(C)=O)[C@H]1OC(=O)c1ccccc1)[C@H]3OC(C)=O`: the LD100 in test [5] amounted to 0.1 microg/cm2.
In the case of `CC(=O)O[C@@H]1[C@H]2C[C@H](OC(=O)c3ccccc3)[C@]3(OC(C)=O)[C@@H](OC(C)=O)[C@@H](C(C)=O)CC(C)[C@@]13OC2(C)C` (stereo partly specified), in test [2], the FR50 turned out to be 0.36.
Regarding `CC(=O)O[C@H]1[C@H](OC(=O)c2ccccc2)[C@@]2(C)[C@@H](OC(=O)c3ccccc3)C[C@H]3C[C@]2(OC3(C)C)[C@@](C)(O)[C@H]1O`, the FR50 in test [2] came out at 0.61.
Turning to `CC(=O)O[C@@H]1[C@H]2[C@@H](OC(=O)c3ccccc3)[C@@H](OC(=O)c3ccccc3)[C@]3(OC(C)=O)[C@@H](OC(=O)c4ccccc4)CC[C@](C)(O)[C@@]13OC2(C)C`, the FR50 in test [2] is 0.76.
Consider `O=C(OCC1CCCO1)c1cc([N+](=O)[O-])cc([N+](=O)[O-])c1` (stereo unspecified), for which, in test [4], the result was inactive. In addition, in test [5], the LD100 result is “inactive”.
Take `CC(=O)OCC1CCOC1` (stereo unspecified): the result in test [4] was inactive. For the same compound, the LD100 entry in test [5] was “inactive”.
On to `CC(=O)OCC1CCCO1` (stereo unspecified), for which the result in test [4] was inactive. Further, the LD100 entry in test [5] is “inactive”.
Regarding `CC(=O)O[C@H]1[C@H](OC(=O)c2ccccc2)[C@@]2(C)[C@@H](OC(=O)c3ccccc3)C[C@@H]3[C@@H](O)[C@]2(OC3(C)C)[C@@](C)(O)[C@H]1O`, the FR50 in test [2] came out at 0.6.
As for `CC(=O)O[C@H]1CCC(C)[C@]23OC(C)(C)[C@H]([C@@H](C(C)=O)[C@H](OC(=O)c4ccccc4)[C@]12OC(C)=O)[C@H]3OC(C)=O` (stereo partly specified), the FR50 in test [1] turned out to be 0.44; in test [2], 0.04.
Taken in the same sequence, the figures for `C/C=C(/C)C(=O)O[C@@H]1[C@@H]2[C@@H](OC(C)=O)[C@@]3(OC2(C)C)[C@@](OC(C)=O)([C@@H](OC(C)=O)CC[C@]3(C)O)[C@@H]1OC(=O)c1ccccc1` were 0.2 and 0.06.
In the case of `OCC1CCCO1` (stereo unspecified), the result in test [4] was inactive. Besides, the LD100 entry in test [5] was “inactive”.
For `CC(=O)O[C@@H]1[C@H]2C[C@H](OC(=O)c3ccccc3)[C@]3(C)[C@@H](OC(=O)c4ccccc4)[C@H](O)[C@H](C(C)=O)[C@](C)(O)[C@@]13OC2(C)C`, in test [2], the FR50 was 0.56.
For `O=C(OCC1CCCO1)c1ccccc1` (stereo unspecified), in test [4], the outcome was inactive. In addition, the LD100 result in test [5] was “inactive”.
As for `CC(=O)O[C@@H]1[C@H]2C[C@H](OC(=O)c3ccccc3)[C@]3(C)[C@@H](OC(=O)c4ccccc4)[C@H](C(C)=O)C[C@](C)(O)[C@@]13OC2(C)C`, the FR50 in test [2] is recorded as 0.35.
Regarding `OCC1CCOC1` (stereo unspecified), in test [4], the outcome was inactive. In test [5], the LD100 entry was “inactive”.
With `CC(=O)O[C@H]1C[C@@H]2[C@@H](OC(=O)c3cccnc3)[C@@]3(OC2(C)C)[C@@]1(C)[C@@H](OC(=O)c1ccccc1)CC[C@]3(C)O`, in test [2], the FR50 came to 0.68.
For the compound `COCCCC[C@@H]1[C@@H]2[C@@H](OC(C)=O)[C@@]3(OC2(C)C)[C@@](OC(C)=O)([C@@H](OC(=O)c2ccccc2)CC[C@]3(C)O)[C@@H]1OC(=O)c1ccccc1`, the FR50 in test [2] was 0.45.
As for `CC(=O)O[C@H]1[C@@H]2[C@@H](O)[C@@]3(OC2(C)C)[C@](C)([C@H]1OC(=O)c1ccccc1)[C@@H](OC(=O)c1ccccc1)[C@H](OC(C)=O)[C@H](OC(C)=O)[C@]3(C)O`, the FR50 in test [2] was determined as 0.38.
